One test has as its target D(3) dopamine receptor (Homo sapiens, UniProt P35462). Description: DRUGMATRIX: Dopamine D3 radioligand binding (ligand: [3H] Spiperone). In kind it is cell membranes, CHO, Membrane. To be noted: for IC50: cho; for pIC50: read-out: IC50; for pKi: read-out: Ki.
For test [1], the target named is Mitogen-activated protein kinase 1 (Homo sapiens, UniProt P28482). The test is described as follows: DRUGMATRIX: Protein Serine/Threonine Kinase, ERK2 enzyme inhibition (substrate: Myelin Basic Protein). Set-up: species or system Escherichia coli. To be noted: Not Active = under 50% inhibition at 10 µM.
Test [2] can be described thus: DRUGMATRIX: Tumor Necrosis Factor (TNF), Non-Selective radioligand binding (ligand: [125I] TNF-alpha). The following applies: u-937; Not Active = under 50% inhibition at 10 µM. In kind it is cell membranes, Membrane.

The structures appear in SMILES notation. pIC50, pKi: −log10 of the molar value.

Mitogen-activated protein kinase 1, sequence (P28482 whole entry): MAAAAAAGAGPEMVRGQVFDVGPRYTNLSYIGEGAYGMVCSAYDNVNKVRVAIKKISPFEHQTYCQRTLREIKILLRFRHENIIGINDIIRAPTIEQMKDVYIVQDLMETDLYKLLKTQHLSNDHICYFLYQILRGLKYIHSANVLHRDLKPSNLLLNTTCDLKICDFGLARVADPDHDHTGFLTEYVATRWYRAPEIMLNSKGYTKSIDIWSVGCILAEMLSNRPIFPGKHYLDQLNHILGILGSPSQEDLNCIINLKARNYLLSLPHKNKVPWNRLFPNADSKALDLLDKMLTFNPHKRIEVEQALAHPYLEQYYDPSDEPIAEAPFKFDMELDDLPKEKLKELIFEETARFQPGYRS
D(3) dopamine receptor, sequence (P35462 whole entry): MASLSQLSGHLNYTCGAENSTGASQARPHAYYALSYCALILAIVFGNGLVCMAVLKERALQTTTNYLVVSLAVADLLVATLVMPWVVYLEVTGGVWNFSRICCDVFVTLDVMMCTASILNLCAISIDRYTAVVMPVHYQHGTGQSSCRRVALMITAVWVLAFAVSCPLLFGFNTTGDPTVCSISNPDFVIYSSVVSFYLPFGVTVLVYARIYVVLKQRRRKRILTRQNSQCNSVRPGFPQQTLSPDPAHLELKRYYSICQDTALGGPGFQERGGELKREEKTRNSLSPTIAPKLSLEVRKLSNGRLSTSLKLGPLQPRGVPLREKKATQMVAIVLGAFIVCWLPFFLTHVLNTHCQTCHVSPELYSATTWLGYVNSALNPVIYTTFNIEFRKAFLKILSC

For `COc1ccccc1N`, the IC50 entry (at D(3) dopamine receptor; in test [1]; in test [2]) was “Not Active” in each case. Besides, in test [2], the Ki result is listed as “Not Active”.
Turning to `C[C@H]1O[C@H](O[C@H]2[C@H](O)[C@@H](O)[C@@H](O[C@H]3[C@H](O)[C@@H](O)C(O)O[C@@H]3CO)O[C@@H]2CO)[C@H](O)[C@@H](O)[C@@H]1N[C@H]1C=C(CO)[C@@H](O)[C@H](O)[C@H]1O` (stereo partly specified) [ACARBOSE], the IC50 entry (on D(3) dopamine receptor; in test [1]; in test [2]) was “Not Active” each time. The Ki result in test [2] is given as “Not Active”.
Turning to `NC12CC3CC(CC(C3)C1)C2` [AMANTADINE], the IC50 entry (on D(3) dopamine receptor; in test [1]; in test [2]) was “Not Active” each time. In test [2], the Ki result was “Not Active”.
Consider `NCCCNCCSP(=O)(O)O` [AMIFOSTINE], for which, at D(3) dopamine receptor, the negative-log IC50 (pIC50) (in general, −log10 of the IC50, conventionally taken in molar units) was 5.71 and the negative logarithm of the Ki (pKi) (commonly the Ki on a negative log10 scale, so that one unit is a factor of ten) is 6.18. In addition, the IC50 result in test [1] was “Not Active”. In test [2], the IC50 result is listed as “Not Active” and the Ki result is given as “Not Active”.
As for `CN(C)CCC=C1c2ccccc2CCc2ccccc21` [AMITRIPTYLINE], on D(3) dopamine receptor, the pIC50 is 6.74 and the pKi was 7.21. Also, the IC50 result in test [1] is given as “Not Active”. Moreover, in test [2], the IC50 entry was “Not Active” and the Ki entry was “Not Active”.
On to `CC(C)c1c(C(=O)Nc2ccccc2)c(-c2ccccc2)c(-c2ccc(F)cc2)n1CC[C@@H](O)C[C@@H](O)CC(=O)O` [ATORVASTATIN], for which the IC50 result (on D(3) dopamine receptor; in test [1]; in test [2]) was “Not Active” throughout. In addition, in test [2], the Ki result is “Not Active”.
In the case of `C[C@H]1[C@H](NC(=O)/C(=N\OC(C)(C)C(=O)O)c2csc(N)n2)C(=O)N1S(=O)(=O)O` [AZTREONAM], the IC50 result (on D(3) dopamine receptor; in test [1]; in test [2]) was “Not Active” each time. The Ki entry in test [2] is on record as “Not Active”.
Turning to `O=C(O)CCNC(=O)c1ccc(/N=N/c2ccc(O)c(C(=O)O)c2)cc1` [BALSALAZIDE], the IC50 result (on D(3) dopamine receptor; in test [1]; in test [2]) was “Not Active” throughout. In test [2], the Ki entry is “Not Active”.
`Cn1c(=O)c2c(ncn2C)n(C)c1=O` [CAFFEINE]: the IC50 entry (at D(3) dopamine receptor; in test [1]; in test [2]) was “Not Active” throughout. Besides, the Ki entry in test [2] was “Not Active”.
As for `CO/N=C(\C(=O)N[C@@H]1C(=O)N2C(C(=O)O)=C(COC(C)=O)CS[C@H]12)c1csc(N)n1` [CEFOTAXIME], the IC50 result on D(3) dopamine receptor is listed as “Not Active”. In addition, in test [2], the IC50 entry is recorded as “Not Active” and the Ki result is given as “Not Active”.
Consider `Cc1cc(O)cc(C)c1Cl` [CHLOROXYLENOL], for which the IC50 result (on D(3) dopamine receptor; in test [1]; in test [2]) was “Not Active” in each case. The Ki entry in test [2] is “Not Active”.
Consider `CCCNC(=O)NS(=O)(=O)c1ccc(Cl)cc1` [CHLORPROPAMIDE], for which the IC50 result (at D(3) dopamine receptor; in test [1]; in test [2]) was “Not Active” each time. Besides, the Ki result in test [2] is “Not Active”.
With `NS(=O)(=O)c1cc(C2(O)NC(=O)c3ccccc32)ccc1Cl` (stereo unspecified) [CHLORTHALIDONE], the IC50 result (at D(3) dopamine receptor; in test [1]; in test [2]) was “Not Active” each time. For the same molecule, the Ki entry in test [2] is given as “Not Active”.
On to `O=C(O)CC(O)(CC(=O)O)C(=O)O` [CITRIC ACID], for which the IC50 result (at D(3) dopamine receptor; in test [1]; in test [2]) was “Not Active” each time. Moreover, the Ki entry in test [2] is on record as “Not Active”.
With `CN1C[C@@H]2C[C@H]1CN2c1cc2c(cc1F)c(=O)c(C(=O)O)cn2C1CC1` [DANOFLOXACIN], the IC50 result (at D(3) dopamine receptor; in test [1]; in test [2]) was “Not Active” throughout. Moreover, in test [2], the Ki result is reported as “Not Active”.
In the case of `COc1cccc2c1C(=O)c1c(O)c3c(c(O)c1C2=O)C[C@@](O)(C(C)=O)C[C@@H]3O[C@H]1C[C@H](N)[C@H](O)[C@H](C)O1` [DAUNORUBICIN], the IC50 result (on D(3) dopamine receptor; in test [1]; in test [2]) was “Not Active” throughout. In addition, the Ki entry in test [2] was “Not Active”.
With `O=C(O)c1cc(-c2ccc(F)cc2F)ccc1O` [DIFLUNISAL], the IC50 entry (at D(3) dopamine receptor; in test [1]; in test [2]) was “Not Active” throughout. The Ki entry in test [2] is “Not Active”.
For the molecule `C[S+](C)[O-]` [DIMETHYL SULFOXIDE], the IC50 entry (at D(3) dopamine receptor; in test [1]; in test [2]) was “Not Active” throughout. The Ki result in test [2] is recorded as “Not Active”.
With `CC1=NN(c2ccccc2)C(=O)C1` [EDARAVONE], the IC50 entry (on D(3) dopamine receptor; in test [1]; in test [2]) was “Not Active” throughout. For the same molecule, the Ki entry in test [2] is recorded as “Not Active”.
As for `CC(O)(P(=O)(O)O)P(=O)(O)O` [ETIDRONIC ACID], the IC50 entry (on D(3) dopamine receptor; in test [1]; in test [2]) was “Not Active” throughout. In addition, the Ki result in test [2] was “Not Active”.
Take `CC(C)(C(=O)O)c1ccc(C(O)CCCN2CCC(C(O)(c3ccccc3)c3ccccc3)CC2)cc1` (stereo unspecified) [FEXOFENADINE]: the IC50 entry (on D(3) dopamine receptor; in test [1]; in test [2]) was “Not Active” throughout. Further, in test [2], the Ki result is recorded as “Not Active”.
As to `CN1CCN(c2c(F)cc3c(=O)c(C(=O)O)cn(CCF)c3c2F)CC1` [FLEROXACIN], the IC50 entry (at D(3) dopamine receptor; in test [1]; in test [2]) was “Not Active” throughout. Further, the Ki entry in test [2] is reported as “Not Active”.
In the case of `O=c1[nH]c(=O)n([C@H]2C[C@H](O)[C@@H](CO)O2)cc1F` [FLOXURIDINE], the IC50 result (on D(3) dopamine receptor; in test [1]; in test [2]) was “Not Active” throughout. Also, the Ki entry in test [2] is “Not Active”.
As for `O=C(O)P(=O)(O)O` [FOSCARNET], the IC50 result (on D(3) dopamine receptor; in test [1]; in test [2]) was “Not Active” each time. In addition, in test [2], the Ki result is listed as “Not Active”.
Consider `CCCCC1=NC2(CCCC2)C(=O)N1Cc1ccc(-c2ccccc2-c2nnn[nH]2)cc1` [IRBESARTAN], for which the IC50 entry (at D(3) dopamine receptor; in test [1]; in test [2]) was “Not Active” each time. Also, the Ki entry in test [2] is “Not Active”.
For the molecule `CN1CCC(=C2c3ccccc3CC(=O)c3sccc32)CC1` [KETOTIFEN], on D(3) dopamine receptor, the pIC50 is 5.71 and the negative-log Ki (pKi) is 6.18. Moreover, the IC50 result in test [1] is “Not Active”. Further, in test [2], the IC50 entry is “Not Active” and the Ki entry is reported as “Not Active”.
In the case of `C[N+](C)(C)C[C@H](O)CC(=O)[O-]` [LEVOCARNITINE], the IC50 entry (at D(3) dopamine receptor; in test [1]; in test [2]) was “Not Active” each time. For the same molecule, the Ki entry in test [2] is recorded as “Not Active”.
On to `C[C@H]1COc2c(N3CCN(C)CC3)c(F)cc3c(=O)c(C(=O)O)cn1c23.C[C@H]1COc2c(N3CCN(C)CC3)c(F)cc3c(=O)c(C(=O)O)cn1c23.O` [LEVOFLOXACIN], for which the IC50 entry (at D(3) dopamine receptor; in test [1]; in test [2]) was “Not Active” in each case. Further, in test [2], the Ki result is “Not Active”.
Take `CCn1cc(C(=O)O)c(=O)c2cc(F)c(N3CCNC(C)C3)c(F)c21` (stereo unspecified) [LOMEFLOXACIN]: the IC50 result (at D(3) dopamine receptor; in test [1]; in test [2]) was “Not Active” throughout. Also, the Ki entry in test [2] is recorded as “Not Active”.
Take `CN1CCCC(CN2c3ccccc3Sc3ccccc32)C1` (stereo unspecified) [MEPAZINE]: at D(3) dopamine receptor, the pIC50 was 5.70 and the pKi is 6.17. For the same molecule, the IC50 entry in test [1] is “Not Active”. Also, in test [2], the IC50 entry was “Not Active” and the Ki entry was “Not Active”.
`Cc1cccc(C)c1NC(=O)C1CCCCN1C` (stereo unspecified) [MEPIVACAINE]: the IC50 entry (at D(3) dopamine receptor; in test [1]; in test [2]) was “Not Active” throughout. For the same molecule, the Ki entry in test [2] is given as “Not Active”.
With `CN(C)C(=N)NC(=N)N` [METFORMIN], the IC50 result (at D(3) dopamine receptor; in test [1]; in test [2]) was “Not Active” each time. For the same molecule, the Ki result in test [2] is “Not Active”.
`CC(C)(C)NCC(O)COc1cccc2c1CC(O)C(O)C2` (stereo unspecified) [NADOLOL]: the IC50 entry (on D(3) dopamine receptor; in test [1]; in test [2]) was “Not Active” each time. For the same molecule, the Ki result in test [2] is “Not Active”.
In the case of `C[C@]12CC[C@H]3[C@@H](CCC4=CC(=O)CC[C@@H]43)[C@@H]1CC[C@@H]2O` [NANDROLONE], the IC50 result (on D(3) dopamine receptor; in test [1]; in test [2]) was “Not Active” each time. In addition, the Ki entry in test [2] is “Not Active”.
For the molecule `C[C@@H]1C/C=C/C=C/C=C/C=C/[C@H](O[C@@H]2O[C@H](C)[C@@H](O)[C@H](N)[C@@H]2O)C[C@@H]2O[C@](O)(C[C@@H](O)C[C@H]3O[C@@H]3/C=C/C(=O)O1)C[C@H](O)[C@H]2C(=O)O` [NATAMYCIN], the IC50 entry (on D(3) dopamine receptor; in test [1]; in test [2]) was “Not Active” each time. Further, in test [2], the Ki entry is given as “Not Active”.
With `CN(C)C(=O)Oc1cccc([N+](C)(C)C)c1.[Br-]` [NEOSTIGMINE BROMIDE], the IC50 entry (on D(3) dopamine receptor; in test [1]; in test [2]) was “Not Active” each time. The Ki entry in test [2] was “Not Active”.
`NC(=O)c1cccnc1` [NIACINAMIDE]: the IC50 entry (at D(3) dopamine receptor; in test [1]; in test [2]) was “Not Active” each time. The Ki result in test [2] is reported as “Not Active”.
As to `CS(=O)(=O)Nc1ccc([N+](=O)[O-])cc1Oc1ccccc1` [NIMESULIDE], the IC50 result (on D(3) dopamine receptor; in test [1]; in test [2]) was “Not Active” each time. Also, the Ki entry in test [2] is listed as “Not Active”.
On to `NC(=O)N1c2ccccc2CC(=O)c2ccccc21` [OXCARBAZEPINE], for which the IC50 result (at D(3) dopamine receptor; in test [1]; in test [2]) was “Not Active” each time. In test [2], the Ki entry was “Not Active”.
For `COc1ccnc(C[S+]([O-])c2nc3ccc(OC(F)F)cc3[nH]2)c1OC` (stereo unspecified) [PANTOPRAZOLE], the IC50 result (on D(3) dopamine receptor; in test [1]; in test [2]) was “Not Active” throughout. The Ki result in test [2] is given as “Not Active”.
As to `N=C(N)c1ccc(OCCCCCOc2ccc(C(=N)N)cc2)cc1` [PENTAMIDINE], in test [1], the IC50 result is given as “Not Active”. Also, in test [2], the IC50 entry is listed as “Not Active” and the Ki entry was “Not Active”.

The record behind these values is ChEMBL document CHEMBL1909046, “DrugMatrix in vitro pharmacology data”.
